Measurements from ChEMBL document CHEMBL3813603, “Selective anti-malarial minor groove binders” (Bioorg Med Chem Lett, 2016).

Columns and labels:
[1] = test system: Plasmodium falciparum; test: Antimalarial activity against Plasmodium falciparum 3D7 incubated for 72 hours by DAPI-staining based confocal imaging analysis; format: functional, organism-based
[2] = test system: Plasmodium falciparum; test: Antimalarial activity against Plasmodium falciparum Dd2 incubated for 72 hours by DAPI-staining based confocal imaging analysis; format: functional, organism-based; details: Dd2, 72 h
[3] = (§1) Cytotoxicity against HEK293 cells at 20 uM by alamar blue assay; format: cell-based; details: human, HEK293 cells; read-out: INH
[4] = Therapeutic ratio of IC50 for HEK293 cells to IC50 for Plasmodium falciparum 3D7; format: cell-based; details: human, HEK293 cells versus Plasmodium falciparum 3D7; read-out: Ratio IC50
[5] = test system: HEK293; test: as §1; format: cell-based; details: human, hek293, 20 µM
[6] = test system: Plasmodium falciparum; test: Antimalarial activity against Plasmodium falciparum 3D7 at 20 uM incubated for 72 hours by DAPI-staining based confocal imaging analysis; format: functional; details: 3D7, 72 h
[7] = test system: Plasmodium falciparum; test: Antimalarial activity against Plasmodium falciparum Dd2 at 20 uM incubated for 72 hours by DAPI-staining based confocal imaging analysis; format: functional; details: Dd2, 72 h
[8] = Cytotoxicity against HEK293 cells at 10 uM by alamar blue assay; format: cell-based; details: human, read-out: INH
[9] = test system: HEK293; test: Cytotoxicity against HEK293 cells by alamar blue assay; format: cell-based; details: Homo sapiens
[10] = Plasmodium falciparum, 3D7, 72 h, read-out: IC50

## COc1cccc(/C=C/c2ccc(C(=O)Nc3cc(C(=O)Nc4nc(C(=O)NCCCN(C)C)c(CCC(C)C)s4)n(C)c3)cc2)c1
[1]; [10]
  IC50: 544 nM
[2]
  IC50: 1130 nM
[3]
  cytotoxicity at 20 µM: 86%
[4]
  selectivity ratio: > 36

## CN(C)CCCNC(=O)c1cc(NC(=O)c2cc(NC(=O)c3cc(NC(=N)c4ccccc4)cn3C)cn2C)cn1C
[5]
  Activity: Non-toxic
[6]
  inhibition at 20 µM: 90%
[7]
  inhibition at 20 µM: 63%

## CSc1ccc(/C=C/c2ccc3cc(C(=O)Nc4cc(C(=O)Nc5cc(C(=O)NCCN6CCOCC6)n(C)c5)n(C)c4)ccc3n2)cc1
[1]; [10]
  IC50: 1770 nM
[2]
  IC50: 1900 nM
[5]
  Activity: Non-toxic

## CC(=N)Nc1cc(C(=O)Nc2cc(C(=O)Nc3cc(C(=O)NCCCN(C)C)n(C)c3)n(C)c2)n(C)c1
[1]; [10]
  IC50: 6420 nM
[2]
  IC50: 6460 nM
[5]
  Activity: Non-toxic

## CC(C)CCc1sc(NC(=O)c2cc(NC(=O)c3ccc(/C=C/c4ccc5ccccc5n4)cc3)cn2C)nc1C(=O)NCCN1CCOCC1
[1]; [10]
  IC50: 103 nM
[2]
  IC50: 241 nM
[5]
  Activity: Non-toxic

## COc1ccc(/C=C/c2ccc3cc(C(=O)Nc4cc(C(=O)Nc5cc(C(=O)NCCN6CCOCC6)n(C)c5)n(C)c4)ccc3n2)cc1
[1]; [10]
  IC50: 1950 nM
[2]
  IC50: 2990 nM
[5]
  Activity: Non-toxic

## Cn1cc(NC(=O)c2cc(NC(=O)c3cc(NC(=O)c4cc5ccccc5cn4)cn3C)cn2C)cc1C(=O)NCCCN1CCOCC1
[1]; [10]
  IC50: 7860 nM
[2]
  IC50: 5990 nM
[5]
  Activity: Non-toxic

## Cn1cc(NC(=O)c2cc(NC(=O)c3ccc(/C=C/c4ccc5nsnc5c4)cc3)cn2C)cc1C(=O)NCCN1CCOCC1
[1]; [10]
  IC50: 6040 nM
[2]
  IC50: 5140 nM
[5]
  Activity: Non-toxic

## CN(C)CCCNC(=O)c1cc(NC(=O)c2cc(NC(=O)c3cc4ccccc4cn3)cn2C)cn1C
[1]; [10]
  IC50: 4700 nM
[2]
  IC50: 4350 nM
[5]
  Activity: Non-toxic

## COc1cccc(C(=N)Nc2cc(C(=O)Nc3cc(C(=O)Nc4cc(C(=O)NCCCN(C)C)n(C)c4)n(C(C)C)c3)n(C)c2)c1
[1]; [10]
  IC50: 9980 nM
[5]
  Activity: Non-toxic
[7]
  inhibition at 20 µM: 100%

## Cn1cc(NC(=O)c2cc(NC(=O)c3cc(NC(=O)c4ccc(Cl)cc4Cl)cn3C)cn2C)cc1C(=O)NCCCN1CCOCC1
[1]; [10]
  IC50: 3040 nM
[2]
  IC50: 3620 nM
[5]
  Activity: Non-toxic

## Cn1cc(NC(=O)c2cc(NC(=O)c3ccc(/C=C/c4ccc(C(F)(F)F)cc4)cc3)cn2C)cc1C(=O)NCCN1CCOCC1
[1]; [10]
  IC50: 3570 nM
[2]
  IC50: 3690 nM
[5]
  Activity: Non-toxic

## Cn1cc(NC(=O)c2cc(NC(=O)c3ccc(/C=C/c4ccc5nonc5c4)cc3)cn2C)cc1C(=O)NCCN1CCOCC1
[1]; [10]
  IC50: 1930 nM
[2]
  IC50: 2300 nM
[5]
  Activity: Non-toxic

## Cn1cc(NC(=O)c2cc(NC(=O)c3cc(NC(=O)c4ccc(Cl)cc4Cl)cn3C)cn2C)cc1C(=O)NCCN1CCOCC1
[1]; [10]
  IC50: 1800 nM
[2]
  IC50: 3070 nM
[5]
  Activity: Non-toxic

## Cn1cc(NC(=O)c2cc(NC(=O)c3ccc(/C=C/c4cccc(F)c4)cc3)cn2C)cc1C(=O)NCCN1CCOCC1
[1]; [10]
  IC50: 3320 nM
[2]
  IC50: 2750 nM
[5]
  Activity: Non-toxic

## Cn1cc(NC(=O)c2cc(NC(=O)c3cc4ccccc4cn3)cn2C)cc1C(=O)NCCN1CCOCC1
[1]; [10]
  IC50: 4310 nM
[2]
  IC50: 3270 nM
[5]
  Activity: Non-toxic

## Cn1cc(NC(=O)c2cc(NC(=O)c3cc(NC=O)cn3C)cn2C)cc1C(=O)NCCN1CCOCC1
[5]
  Activity: Non-toxic
[6]
  inhibition at 20 µM: 98%
[7]
  inhibition at 20 µM: 25%

## CC(C)CCc1sc(NC(=O)c2cc(NC(=O)c3cc(/C=C/c4ccc([N+](=O)[O-])cc4)cn3C)cn2C)nc1C(=O)NCCN1CCOCC1
[1]; [10]
  IC50: 322 nM
[2]
  IC50: 289 nM
[3]
  cytotoxicity at 20 µM: 54%
[4]
  selectivity ratio: > 60

## Cn1cc(NC(=O)c2cc(NC(=O)c3ccc(/C=C/c4ccc(F)cc4)cc3)cn2C)cc1C(=O)NCCN1CCOCC1
[1]; [10]
  IC50: 3300 nM
[2]
  IC50: 3340 nM
[5]
  Activity: Non-toxic

## CC(C)n1cc(NC(=O)c2cc(NC(=O)c3cnc(Cl)c(Cl)c3)cn2C)cc1C(=O)Nc1cc(C(=O)NCCCN(C)C)n(C)c1
[5]
  Activity: Non-toxic
[6]
  inhibition at 20 µM: 75%
[7]
  inhibition at 20 µM: 65%

## CN(C)CCCNC(=O)c1cc(NC(=O)c2cc(NC(=O)c3cc(NC(=N)c4cc5ccccc5cn4)cn3C)cn2C)cn1C
[1]; [10]
  IC50: 3380 nM
[2]
  IC50: 2770 nM
[8]
  cytotoxicity at 10 µM: 40%

## COc1ccnc(C(=N)Nc2cc(C(=O)Nc3cc(C(=O)Nc4nc(C(=O)NCCN5CCOCC5)c(C(C)C)s4)n(C)c3)n(C)c2)c1
[1]; [10]
  IC50: 2730 nM
[2]
  IC50: 2970 nM
[5]
  Activity: Non-toxic

## CN(C)CCCn1cnc(NC(=O)c2cc(NC(=O)c3cc(NC(=O)c4cc5ccccc5cn4)cn3C)cn2C)c1.O=C(O)C(F)(F)F
[1]; [10]
  IC50: 5490 nM
[2]
  IC50: 4480 nM
[5]
  Activity: Non-toxic

## CC(C)c1sc(NC(=O)c2cc(NC(=O)c3cc(NC(=O)c4cc5ccccc5cn4)cn3C)cn2C)nc1C(=O)NCCN1CCOCC1
[1]; [10]
  IC50: 469 nM
[2]
  IC50: 636 nM
[5]
  Activity: Non-toxic
[4]
  selectivity ratio: > 42

## CC(C)CCc1sc(NC(=O)c2cc(NC(=O)c3cc4ccccc4cn3)cn2C)nc1C(=O)NCCCN(C)C
[1]; [10]
  IC50: 1410 nM
[2]
  IC50: 2000 nM
[5]
  Activity: Non-toxic

## Cn1cc(NC(=O)c2cc(NC(=O)c3ccc(/C=C/c4ccncc4)cc3)cn2C)cc1C(=O)NCCN1CCOCC1
[1]; [10]
  IC50: 780 nM
[2]
  IC50: 923 nM
[3]
  cytotoxicity at 20 µM: 63%
[4]
  selectivity ratio: > 26

## COc1cccc(/C=C/c2cccc(C(=O)Nc3cc(C(=O)Nc4nc(C(=O)NCCCN(C)C)c(CCC(C)C)s4)n(C)c3)c2)c1
[1]; [10]
  IC50: 868 nM
[9]
  IC50: 5800 nM
[2]
  IC50: 1150 nM
[4]
  selectivity ratio: 6.7

## CC(C)CCc1sc(NC(=O)c2cc(NC(=O)c3ccc(/C=C/c4ccc5ccccc5c4)cc3)cn2C)nc1C(=O)NCCN1CCOCC1
[1]; [10]
  IC50: 390 nM
[2]
  IC50: 588 nM
[5]
  Activity: Non-toxic
[4]
  selectivity ratio: > 50

## CC(C)CCc1sc(NC(=O)c2cc(NC(=O)c3cc(/C=C/c4ccc([N+](=O)[O-])cc4)cn3C)cn2C)nc1C(=O)NCCCN(C)C
[1]; [10]
  IC50: 350 nM
[2]
  IC50: 339 nM
[3]
  cytotoxicity at 20 µM: 60%
[4]
  selectivity ratio: > 14

## COc1cccc(C(=N)Nc2cc(C(=O)Nc3cc(C(=O)Nc4cc(C(=O)NCCCN5CCOCC5)n(C)c4)n(C)c3)n(C)c2)c1
[1]
  IC50: Not Active
[5]
  Activity: Non-toxic
[7]
  inhibition at 20 µM: 35%

## Cn1cc(NC(=O)c2cc(NC(=O)c3ccc(/C=C/c4nc5ccccc5o4)cc3)cn2C)cc1C(=O)NCCN1CCOCC1
[1]; [10]
  IC50: 39 nM
[2]
  IC50: 38 nM
[5]
  Activity: Non-toxic
[4]
  selectivity ratio: > 514

## C[C@@H]1CC[C@H]2[C@@H](C)C(=O)O[C@@H]3O[C@@]4(C)CC[C@@H]1[C@]32OO4 [ARTEMISININ]
[9]
  IC50: > 120000 nM
[2]
  IC50: 9 nM
[4]
  selectivity ratio: > 10000

## CCN(CC)CCCC(C)Nc1ccnc2cc(Cl)ccc12 (configuration not stated) [CHLOROQUINE]
[9]
  IC50: > 120000 nM

## COc1ccc(C[C@H](N)C(=O)N[C@H]2[C@@H](O)[C@H](n3cnc4c(N(C)C)ncnc43)O[C@@H]2CO)cc1 [PUROMYCIN]
[1]; [10]
  IC50: 60 nM
[2]
  IC50: 62 nM
[4]
  selectivity ratio: 6

## CCc1nc(N)nc(N)c1-c1ccc(Cl)cc1 [PYRIMETHAMINE]
[1]; [10]
  IC50: 8.45 nM
[9]
  IC50: 8070 nM
[2]
  IC50: > 120 nM
[4]
  selectivity ratio: 955
